{
  "source": "patent US12109197B2",
  "about": "“Combinations of β-lactam compounds and probenecid and uses thereof” (Iterum Therapeutics International Limited, priority 2018, dated 2024)",
  "key": {"[1]": {"protocol": "Subjects were to be dosed twice a day (every 12 hours) for 6 days and on Day 7 they were to be dosed once. All treatment groups could be run in parallel or sequentially. Subjects were allocated based on the randomization list. Randomization numbers were assigned sequentially as subjects entered into groups on the basis of their order of entry into the study. Subjects who withdrew for reasons unrelated to safety may have been replaced. Blood samples were obtained at prespecified intervals in order to characterize pharmacokinetics."}, "[2]": {"conditions": "Dacey and Sande 1974; cited from earlier work"}, "[3]": {"test": "Multiple-dose study of sulopenem delivered intravenously: plasma pharmacokinetics", "type": "in vivo, human", "conditions": "for AUC(0-inf) / AUC(0-t) / Cmax / half-life / Tmax / CL renal: human, plasma, iv; for Tmax: median [range]; for Rac: accumulation ratio", "protocol": "The pharmacokinetics of sulopenem delivered intravenously were studied in a randomized, investigator-blind, subject-blind, sponsor-open, placebo-controlled, multiple-dose study of sulopenem. There were 5 cohorts dosed. Each subject was dosed for up to 14 days. Each cohort consisted of 10 subjects."}, "[4]": {"test_system": "Porphyromonas gingivalis", "conditions": "Ednie and Appelbaum 2009; cited from earlier work"}, "[5]": {"conditions": "800 mg, intravenous 800 mg (3 h BID), Day 1"}, "[6]": {"conditions": "800 mg, intravenous 800 mg (3 h BID), Day 14"}, "[7]": {"conditions": "1200 mg, intravenous 1200 mg (1 h BID), Day 1"}, "[8]": {"conditions": "1200 mg, intravenous 1200 mg (1 h BID), Day 14"}, "[9]": {"conditions": "1200 mg, intravenous 1200 mg ([…] BID), Day 1"}, "[10]": {"conditions": "1200 mg, intravenous 1200 mg ([…] BID), Day 14"}, "[11]": {"conditions": "1600 mg, intravenous 1600 mg (1.5 h BID), Day 1"}, "[12]": {"conditions": "1600 mg, intravenous 1600 mg (1.5 h BID), Day 14"}, "[13]": {"conditions": "2000 mg, intravenous 2000 mg (1.5 h BID), Day 1"}},
  "note": "Read-outs that look alike come from different tables or passages of the source.",
  "data": [
    {"smiles": "CCOC(C)(C)C(=O)OCOC(=O)C1=C(S[C@H]2CC[S@@+]([O-])C2)S[C@@H]2[C@@H]([C@@H](C)O)C(=O)N12", "note": "[Compound III-1b]", "values": [
      {"measurement": "AUC of sulopenem on Day 7 compared with Day 1", "setting": "[1]; administered alone through the oral route", "value": "lower than that on Day 1"},
      {"measurement": "AUC of sulopenem on Day 7 compared with Day 1", "setting": "[1]; co-administered with probenecid", "value": "increased on Day 7 beyond that seen on Day 1"}
    ]},
    {"smiles": "CCCN(CCC)S(=O)(=O)c1ccc(C(=O)O)cc1", "note": "[probenecid]", "values": [
      {"measurement": "effect on concentrations of β-lactam compounds in the cerebrospinal fluid", "setting": "[2]", "value": "increase the concentrations of β-lactam compounds in the cerebrospinal fluid"}
    ]},
    {"smiles": "C[C@@H](O)[C@H]1C(=O)N2C(C(=O)O)=C(S[C@H]3CC[S@@+]([O-])C3)S[C@H]12", "note": "[sulopenem]", "values": [
      {"measurement": "AUC(0-inf)", "setting": "[3]; [5]", "value": 22400, "unit": "ng·h/mL"},
      {"measurement": "AUC(0-t)", "setting": "[3]; [5]", "value": 22300, "unit": "ng·h/mL"},
      {"measurement": "Cmax", "setting": "[3]; [5]", "value": 7270, "unit": "ng/mL"},
      {"measurement": "half-life", "setting": "[3]; [5]", "value": 0.825, "unit": "h"},
      {"measurement": "Tmax", "setting": "[3]; [5]", "value": 2, "unit": "h"},
      {"measurement": "AUC(0-inf)", "setting": "[3]; [6]", "value": 26500, "unit": "ng·h/mL"},
      {"measurement": "AUC(0-t)", "setting": "[3]; [6]", "value": 26400, "unit": "ng·h/mL"},
      {"measurement": "CL renal", "setting": "[3]; [6]", "value": 257, "unit": "mL/min"},
      {"measurement": "Cmax", "setting": "[3]; [6]", "value": 8970, "unit": "ng/mL"},
      {"measurement": "half-life", "setting": "[3]; [6]", "value": 0.889, "unit": "h"},
      {"measurement": "Tmax", "setting": "[3]; [6]", "value": 2, "unit": "h"},
      {"measurement": "AUC(0-inf)", "setting": "[3]; [7]", "value": 42300, "unit": "ng·h/mL"},
      {"measurement": "AUC(0-t)", "setting": "[3]; [7]", "value": 42200, "unit": "ng·h/mL"},
      {"measurement": "Cmax", "setting": "[3]; [7]", "value": 32500, "unit": "ng/mL"},
      {"measurement": "half-life", "setting": "[3]; [7]", "value": 1.04, "unit": "h"},
      {"measurement": "Tmax", "setting": "[3]; [7]", "value": 1, "unit": "h"},
      {"measurement": "AUC(0-inf)", "setting": "[3]; [8]", "value": 41400, "unit": "ng·h/mL"},
      {"measurement": "AUC(0-t)", "setting": "[3]; [8]", "value": 41300, "unit": "ng·h/mL"},
      {"measurement": "CL renal", "setting": "[3]; [8]", "value": 245, "unit": "mL/min"},
      {"measurement": "Cmax", "setting": "[3]; [8]", "value": 30700, "unit": "ng/mL"},
      {"measurement": "half-life", "setting": "[3]; [8]", "value": 1.05, "unit": "h"},
      {"measurement": "Tmax", "setting": "[3]; [8]", "value": 1, "unit": "h"},
      {"measurement": "AUC(0-inf)", "setting": "[3]; [9]", "value": 41900, "unit": "ng·h/mL"},
      {"measurement": "AUC(0-t)", "setting": "[3]; [9]", "value": 41800, "unit": "ng·h/mL"},
      {"measurement": "Cmax", "setting": "[3]; [9]", "value": 16600, "unit": "ng/mL"},
      {"measurement": "half-life", "setting": "[3]; [9]", "value": 1.12, "unit": "h"},
      {"measurement": "Tmax", "setting": "[3]; [9]", "value": 2.25, "unit": "h"},
      {"measurement": "AUC(0-inf)", "setting": "[3]; [10]", "value": 34600, "unit": "ng·h/mL"},
      {"measurement": "AUC(0-t)", "setting": "[3]; [10]", "value": 34500, "unit": "ng·h/mL"},
      {"measurement": "CL renal", "setting": "[3]; [10]", "value": 313, "unit": "mL/min"},
      {"measurement": "Cmax", "setting": "[3]; [10]", "value": 13500, "unit": "ng/mL"},
      {"measurement": "half-life", "setting": "[3]; [10]", "value": 1.01, "unit": "h"},
      {"measurement": "Tmax", "setting": "[3]; [10]", "value": 2, "unit": "h"},
      {"measurement": "AUC(0-inf)", "setting": "[3]; [11]", "value": 67300, "unit": "ng·h/mL"},
      {"measurement": "AUC(0-t)", "setting": "[3]; [11]", "value": 67100, "unit": "ng·h/mL"},
      {"measurement": "Cmax", "setting": "[3]; [11]", "value": 40100, "unit": "ng/mL"},
      {"measurement": "half-life", "setting": "[3]; [11]", "value": 1.04, "unit": "h"},
      {"measurement": "Tmax", "setting": "[3]; [11]", "value": 1.5, "unit": "h"},
      {"measurement": "AUC(0-inf)", "setting": "[3]; [12]", "value": 54900, "unit": "ng·h/mL"},
      {"measurement": "AUC(0-t)", "setting": "[3]; [12]", "value": 54700, "unit": "ng·h/mL"},
      {"measurement": "CL renal", "setting": "[3]; [12]", "value": 327, "unit": "mL/min"},
      {"measurement": "Cmax", "setting": "[3]; [12]", "value": 31800, "unit": "ng/mL"},
      {"measurement": "half-life", "setting": "[3]; [12]", "value": 1.2, "unit": "h"},
      {"measurement": "Tmax", "setting": "[3]; [12]", "value": 1.25, "unit": "h"},
      {"measurement": "AUC(0-inf)", "setting": "[3]; [13]", "value": 90300, "unit": "ng·h/mL"},
      {"measurement": "AUC(0-t)", "setting": "[3]; [13]", "value": 90100, "unit": "ng·h/mL"},
      {"measurement": "Cmax", "setting": "[3]; [13]", "value": 51500, "unit": "ng/mL"},
      {"measurement": "half-life", "setting": "[3]; [13]", "value": 1.12, "unit": "h"},
      {"measurement": "Tmax", "setting": "[3]; [13]", "value": 1.5, "unit": "h"},
      {"measurement": "Rac", "setting": "[3]; intravenous 800 mg (3 h BID), Day 14", "value": "1.15 (29)"},
      {"measurement": "Rac", "setting": "[3]; intravenous 1200 mg (1 h BID), Day 14", "value": "0.928 (17)"},
      {"measurement": "Rac", "setting": "[3]; intravenous 1200 mg ([…] BID), Day 14", "value": "0.841 (9)"},
      {"measurement": "Rac", "setting": "[3]; intravenous 1600 mg (1.5 h BID), Day 14", "value": "0.791 (9)"},
      {"measurement": "activity against Porphyromonas gingivalis", "setting": "[4]", "value": "active"}
    ]}
  ]
}
